Reference: the NIST ThermoML archive (doi:10.1021/acs.jced.7b00106)
Numbers after ± are expanded uncertainties.

Details: Hot wire method

FC(F)(F)/C=C/Cl [(E)-1-chloro-3,3,3-trifluoroprop-1-ene]
Details | thermal conductivity [W/m/K]
323.1 K, 34268 kPa, Liquid | 0.09193 ± 0.0047
323.1 K, 66598 kPa, Liquid | 0.1029 ± 0.0033
323.11 K, 123 kPa, Gas | 0.01239 ± 0.00044
323.13 K, 141 kPa, Gas | 0.01226 ± 0.00044
323.13 K, 436 kPa, Liquid | 0.07562 ± 0.0024
323.13 K, 34301 kPa, Liquid | 0.09204 ± 0.0047
323.15 K, 9819 kPa, Liquid | 0.08053 ± 0.0035
323.15 K, 56133 kPa, Liquid | 0.09946 ± 0.0033
323.17 K, 162 kPa, Gas | 0.01242 ± 0.00044
323.18 K, 25073 kPa, Liquid | 0.08808 ± 0.0031
323.2 K, 191 kPa, Gas | 0.01256 ± 0.00045
323.22 K, 5184 kPa, Liquid | 0.07808 ± 0.0025
323.24 K, 99 kPa, Gas | 0.01215 ± 0.00043
323.24 K, 43827 kPa, Liquid | 0.09508 ± 0.0082
323.25 K, 99 kPa, Gas | 0.01276 ± 0.00045
323.25 K, 164 kPa, Gas | 0.01258 ± 0.00045
323.26 K, 123 kPa, Gas | 0.01268 ± 0.00045
323.26 K, 43810 kPa, Liquid | 0.0946 ± 0.0052
323.3 K, 34263 kPa, Liquid | 0.09159 ± 0.0047
323.32 K, 34298 kPa, Liquid | 0.09169 ± 0.0049
323.33 K, 446 kPa, Liquid | 0.07514 ± 0.0024
323.39 K, 25067 kPa, Liquid | 0.08782 ± 0.0029
323.41 K, 123 kPa, Gas | 0.01233 ± 0.00044
323.45 K, 161 kPa, Gas | 0.01242 ± 0.00044
323.47 K, 142 kPa, Gas | 0.0127 ± 0.00045
323.52 K, 66583 kPa, Liquid | 0.1032 ± 0.0047
323.54 K, 259 kPa, Gas | 0.01261 ± 0.00045
323.54 K, 66602 kPa, Liquid | 0.103 ± 0.0036
323.57 K, 16961 kPa, Liquid | 0.08443 ± 0.0028
323.6 K, 56150 kPa, Liquid | 0.09972 ± 0.003
323.64 K, 165 kPa, Gas | 0.01259 ± 0.00045
323.64 K, 189 kPa, Gas | 0.01262 ± 0.00045
323.65 K, 123 kPa, Gas | 0.01276 ± 0.00045
323.66 K, 9815 kPa, Liquid | 0.08057 ± 0.0024
323.69 K, 99 kPa, Gas | 0.01287 ± 0.00046
323.72 K, 123 kPa, Gas | 0.01229 ± 0.00044
323.73 K, 66589 kPa, Liquid | 0.103 ± 0.0032
323.75 K, 66615 kPa, Liquid | 0.1027 ± 0.0057
323.76 K, 5178 kPa, Liquid | 0.07818 ± 0.0027
323.77 K, 160 kPa, Gas | 0.01238 ± 0.00044
323.77 K, 16953 kPa, Liquid | 0.08413 ± 0.0031
323.81 K, 56140 kPa, Liquid | 0.09958 ± 0.0032
323.87 K, 438 kPa, Liquid | 0.07537 ± 0.0024
323.88 K, 9798 kPa, Liquid | 0.08054 ± 0.0027
323.92 K, 142 kPa, Gas | 0.01276 ± 0.00045
323.98 K, 5181 kPa, Liquid | 0.07788 ± 0.0027
323.99 K, 260 kPa, Gas | 0.01261 ± 0.00045
324.07 K, 165 kPa, Gas | 0.01273 ± 0.00045
324.09 K, 123 kPa, Gas | 0.0128 ± 0.00045
324.11 K, 428 kPa, Liquid | 0.07518 ± 0.0023
324.12 K, 188 kPa, Gas | 0.01262 ± 0.00045
324.17 K, 99 kPa, Gas | 0.01287 ± 0.00046
324.41 K, 142 kPa, Gas | 0.01275 ± 0.00045
324.45 K, 260 kPa, Gas | 0.01268 ± 0.00045
324.52 K, 165 kPa, Gas | 0.01271 ± 0.00045
324.55 K, 123 kPa, Gas | 0.01276 ± 0.00045
324.61 K, 187 kPa, Gas | 0.01271 ± 0.00045
324.68 K, 99 kPa, Gas | 0.0129 ± 0.00046
324.93 K, 141 kPa, Gas | 0.01279 ± 0.00045
324.96 K, 260 kPa, Gas | 0.01269 ± 0.00045
324.99 K, 163 kPa, Gas | 0.01274 ± 0.00045
325.04 K, 123 kPa, Gas | 0.01286 ± 0.00046
325.13 K, 186 kPa, Gas | 0.01278 ± 0.00045
325.22 K, 99 kPa, Gas | 0.01286 ± 0.00046
325.47 K, 141 kPa, Gas | 0.01283 ± 0.00046
325.5 K, 161 kPa, Gas | 0.01276 ± 0.00045
325.56 K, 123 kPa, Gas | 0.01283 ± 0.00046
325.79 K, 99 kPa, Gas | 0.01295 ± 0.00046
326.04 K, 160 kPa, Gas | 0.01284 ± 0.00046
326.1 K, 123 kPa, Gas | 0.01295 ± 0.00046
331.18 K, 333 kPa, Gas | 0.01373 ± 0.00049
331.42 K, 333 kPa, Gas | 0.01368 ± 0.00049
331.5 K, 333 kPa, Gas | 0.01298 ± 0.0005
331.53 K, 115 kPa, Gas | 0.01325 ± 0.00047
331.54 K, 333 kPa, Gas | 0.01297 ± 0.00051
331.58 K, 329 kPa, Gas | 0.01333 ± 0.00052
331.68 K, 333 kPa, Gas | 0.01367 ± 0.00049
331.75 K, 257 kPa, Gas | 0.01341 ± 0.00047
331.8 K, 182 kPa, Gas | 0.01323 ± 0.00047
331.82 K, 332 kPa, Gas | 0.01319 ± 0.00047
331.83 K, 113 kPa, Gas | 0.01306 ± 0.00046
331.85 K, 115 kPa, Gas | 0.01325 ± 0.00047
331.86 K, 333 kPa, Gas | 0.01297 ± 0.00046
331.89 K, 328 kPa, Gas | 0.01301 ± 0.00046
331.9 K, 328 kPa, Gas | 0.01382 ± 0.00049
331.94 K, 333 kPa, Gas | 0.01367 ± 0.00049
331.97 K, 263 kPa, Gas | 0.01309 ± 0.00046
332 K, 256 kPa, Gas | 0.01333 ± 0.00047
332.04 K, 97 kPa, Gas | 0.01346 ± 0.00048
332.06 K, 181 kPa, Gas | 0.01314 ± 0.00047
332.08 K, 113 kPa, Gas | 0.01302 ± 0.00046
332.08 K, 186 kPa, Gas | 0.01344 ± 0.00048
332.12 K, 331 kPa, Gas | 0.01303 ± 0.00047
332.14 K, 328 kPa, Gas | 0.01379 ± 0.00049
332.18 K, 114 kPa, Gas | 0.01353 ± 0.00048
332.2 K, 328 kPa, Gas | 0.01299 ± 0.00046
332.25 K, 255 kPa, Gas | 0.01328 ± 0.00047
332.28 K, 333 kPa, Gas | 0.013 ± 0.00046
332.3 K, 262 kPa, Gas | 0.01306 ± 0.00046
332.33 K, 180 kPa, Gas | 0.01309 ± 0.00046
332.36 K, 113 kPa, Gas | 0.01297 ± 0.00046
332.37 K, 97 kPa, Gas | 0.01361 ± 0.00048
332.4 K, 328 kPa, Gas | 0.01373 ± 0.00049
332.42 K, 185 kPa, Gas | 0.01339 ± 0.00047
332.52 K, 253 kPa, Gas | 0.01329 ± 0.00047
332.54 K, 113 kPa, Gas | 0.01346 ± 0.00048
332.56 K, 97 kPa, Gas | 0.01298 ± 0.00046
332.56 K, 328 kPa, Gas | 0.01325 ± 0.00047
332.63 K, 178 kPa, Gas | 0.01301 ± 0.00046
332.63 K, 333 kPa, Gas | 0.01323 ± 0.00047
332.64 K, 112 kPa, Gas | 0.01294 ± 0.00046
332.66 K, 260 kPa, Gas | 0.01314 ± 0.00047
332.67 K, 328 kPa, Gas | 0.01373 ± 0.00049
332.71 K, 98 kPa, Gas | 0.01354 ± 0.00048
332.81 K, 183 kPa, Gas | 0.0135 ± 0.00048
332.81 K, 252 kPa, Gas | 0.01326 ± 0.00047
332.84 K, 97 kPa, Gas | 0.01292 ± 0.00046
332.93 K, 177 kPa, Gas | 0.01297 ± 0.00046
332.95 K, 113 kPa, Gas | 0.01357 ± 0.00048
332.95 K, 328 kPa, Gas | 0.0132 ± 0.00047
332.96 K, 113 kPa, Gas | 0.01287 ± 0.00046
333.06 K, 258 kPa, Gas | 0.01325 ± 0.00047
333.08 K, 97 kPa, Gas | 0.01356 ± 0.00048
333.08 K, 333 kPa, Gas | 0.01308 ± 0.00046
333.14 K, 97 kPa, Gas | 0.01284 ± 0.00046
333.22 K, 183 kPa, Gas | 0.01328 ± 0.00047
333.25 K, 176 kPa, Gas | 0.01293 ± 0.00046
333.35 K, 328 kPa, Gas | 0.0133 ± 0.00048
333.38 K, 113 kPa, Gas | 0.01357 ± 0.00048
333.44 K, 97 kPa, Gas | 0.01284 ± 0.00046
333.49 K, 257 kPa, Gas | 0.01337 ± 0.00047
333.5 K, 97 kPa, Gas | 0.01356 ± 0.00048
333.54 K, 333 kPa, Gas | 0.01313 ± 0.00047
333.58 K, 176 kPa, Gas | 0.01292 ± 0.00046
333.66 K, 182 kPa, Gas | 0.01345 ± 0.00048
333.78 K, 328 kPa, Gas | 0.01326 ± 0.00047
333.82 K, 113 kPa, Gas | 0.0136 ± 0.00048
333.93 K, 255 kPa, Gas | 0.01332 ± 0.00047
333.94 K, 97 kPa, Gas | 0.01368 ± 0.00048
334.01 K, 333 kPa, Gas | 0.01329 ± 0.00047
334.14 K, 180 kPa, Gas | 0.01351 ± 0.00048
334.25 K, 328 kPa, Gas | 0.01327 ± 0.00047
334.31 K, 112 kPa, Gas | 0.01357 ± 0.00048
334.41 K, 97 kPa, Gas | 0.01363 ± 0.00048
334.42 K, 254 kPa, Gas | 0.0134 ± 0.00047
